Test results reported in PubChem BioAssay (NCI).
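The compound was tested at five concentrations on cells cultured in 96-well plates, with a 48-hour exposure period. The concentration for full growth arrest is given as TGI.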

Assays:
Experiment in all cases: NCI-60 cell line screen, 48 h
KM20L2 colon = tested on: KM20L2 colon
SNB-78 CNS = tested on: SNB-78 CNS
SF-268 CNS = tested on: SF-268 CNS
A498 renal = tested on: A498 renal
SW-620 colon = tested on: SW-620 colon
UACC-62 melanoma = tested on: UACC-62 melanoma
OVCAR-3 ovarian = tested on: OVCAR-3 ovarian
DMS 114 small cell lung = tested on: DMS 114 small cell lung
RPMI-8226 leukemia = tested on: RPMI-8226 leukemia
SN12C renal = tested on: SN12C renal
UO-31 renal = tested on: UO-31 renal
786-0 renal = tested on: 786-0 renal
SK-MEL-5 melanoma = tested on: SK-MEL-5 melanoma
TK-10 renal = tested on: TK-10 renal
IGROV1 ovarian = tested on: IGROV1 ovarian
SF-295 CNS = tested on: SF-295 CNS
HOP-92 NSCLC = tested on: HOP-92 NSCLC
OVCAR-8 ovarian = tested on: OVCAR-8 ovarian
NCI-H522 lung = tested on: NCI-H522 lung
U251 CNS = tested on: U251 CNS
A549 NSCLC = tested on: A549 NSCLC
SK-MEL-2 melanoma = tested on: SK-MEL-2 melanoma
HL-60(TB) leukemia = tested on: HL-60(TB) leukemia
HCT-15 colon = tested on: HCT-15 colon
SNB-19 CNS = tested on: SNB-19 CNS
MOLT-4 leukemia = tested on: MOLT-4 leukemia
KM12 colon = tested on: KM12 colon
HCT-116 colon = tested on: HCT-116 colon
NCI-H226 lung = tested on: NCI-H226 lung
SK-MEL-28 melanoma = tested on: SK-MEL-28 melanoma
HOP-62 NSCLC = tested on: HOP-62 NSCLC
SK-OV-3 ovarian = tested on: SK-OV-3 ovarian
OVCAR-4 ovarian = tested on: OVCAR-4 ovarian
M14 melanoma = tested on: M14 melanoma
OVCAR-5 ovarian = tested on: OVCAR-5 ovarian
XF 498 CNS = tested on: XF 498 CNS
K-562 leukemia = tested on: K-562 leukemia
LXFL 529 NSCLC = tested on: LXFL 529 NSCLC
DMS 273 small cell lung = tested on: DMS 273 small cell lung
HCC-2998 colon = tested on: HCC-2998 colon
EKVX NSCLC = tested on: EKVX NSCLC
SF-539 CNS = tested on: SF-539 CNS
COLO 205 colon = tested on: COLO 205 colon
HT29 colon = tested on: HT29 colon
UACC-257 melanoma = tested on: UACC-257 melanoma
NCI-H23 lung = tested on: NCI-H23 lung
CCRF-CEM leukemia = tested on: CCRF-CEM leukemia
ACHN renal = tested on: ACHN renal
NCI-H460 lung = tested on: NCI-H460 lung
LOX IMVI melanoma = tested on: LOX IMVI melanoma
MALME-3M melanoma = tested on: MALME-3M melanoma
SR leukemia = tested on: SR leukemia
DLD-1 colon = tested on: DLD-1 colon
SNB-75 CNS = tested on: SNB-75 CNS
CAKI-1 renal = tested on: CAKI-1 renal
HOP-18 NSCLC = tested on: HOP-18 NSCLC
M19-MEL melanoma = tested on: M19-MEL melanoma

Structure (SMILES): COC(=O)C(/C(=N/N)C(=O)Nc1cc(Cl)ccc1Cl)c1nc2ccc([N+](=O)[O-])cc2[nH]c1=O (stereo not drawn)
- TGI (KM20L2 colon): > 100 µM
- TGI (SNB-78 CNS): > 100 µM
- TGI (SF-268 CNS): > 100 µM
- TGI (A498 renal): > 100 µM
- TGI (SW-620 colon): > 100 µM
- TGI (UACC-62 melanoma): > 100 µM
- TGI (OVCAR-3 ovarian): > 100 µM
- TGI (DMS 114 small cell lung): > 100 µM
- TGI (RPMI-8226 leukemia): > 100 µM
- TGI (SN12C renal): > 100 µM
- TGI (UO-31 renal): > 100 µM
- TGI (786-0 renal): > 100 µM
- TGI (SK-MEL-5 melanoma): > 100 µM
- TGI (TK-10 renal): > 100 µM
- TGI (IGROV1 ovarian): > 100 µM
- TGI (SF-295 CNS): > 100 µM
- TGI (HOP-92 NSCLC): > 100 µM
- TGI (OVCAR-8 ovarian): > 100 µM
- TGI (NCI-H522 lung): > 100 µM
- TGI (U251 CNS): > 100 µM
- TGI (A549 NSCLC): > 100 µM
- TGI (SK-MEL-2 melanoma): > 100 µM
- TGI (HL-60(TB) leukemia): > 100 µM
- TGI (HCT-15 colon): > 100 µM
- TGI (SNB-19 CNS): > 100 µM
- TGI (MOLT-4 leukemia): > 100 µM
- TGI (KM12 colon): > 100 µM
- TGI (HCT-116 colon): > 100 µM
- TGI (NCI-H226 lung): > 100 µM
- TGI (SK-MEL-28 melanoma): > 100 µM
- TGI (HOP-62 NSCLC): > 100 µM
- TGI (SK-OV-3 ovarian): > 100 µM
- TGI (OVCAR-4 ovarian): > 100 µM
- TGI (M14 melanoma): > 100 µM
- TGI (OVCAR-5 ovarian): > 100 µM
- TGI (XF 498 CNS): > 100 µM
- TGI (K-562 leukemia): > 100 µM
- TGI (LXFL 529 NSCLC): > 100 µM
- TGI (DMS 273 small cell lung): > 100 µM
- TGI (HCC-2998 colon): > 100 µM
- TGI (EKVX NSCLC): > 100 µM
- TGI (SF-539 CNS): > 100 µM
- TGI (COLO 205 colon): > 100 µM
- TGI (HT29 colon): > 100 µM
- TGI (UACC-257 melanoma): > 100 µM
- TGI (NCI-H23 lung): > 100 µM
- TGI (CCRF-CEM leukemia): > 100 µM
- TGI (ACHN renal): > 100 µM
- TGI (NCI-H460 lung): > 100 µM
- TGI (LOX IMVI melanoma): > 100 µM
- TGI (MALME-3M melanoma): > 100 µM
- TGI (SR leukemia): > 100 µM

Structure (SMILES): CC(=O)OC1CC2C(C)(C)C(=O)C=C[C@]2(C)C2CCC3(C)C(c4ccoc4)C(=O)C4OC43[C@]12C (stereo partly drawn)
- TGI (KM20L2 colon): 32.1 µM
- TGI (SNB-78 CNS): > 100 µM
- TGI (SF-268 CNS): 53.9 µM
- TGI (A498 renal): 42.5 µM
- TGI (SW-620 colon): 42 µM
- TGI (UACC-62 melanoma): 34.3 µM
- TGI (OVCAR-3 ovarian): 34.4 µM
- TGI (DMS 114 small cell lung): 33.3 µM
- TGI (RPMI-8226 leukemia): 22.5 µM
- TGI (SN12C renal): 30.7 µM
- TGI (UO-31 renal): 37.6 µM
- TGI (786-0 renal): 69.3 µM
- TGI (SK-MEL-5 melanoma): 30 µM
- TGI (TK-10 renal): > 100 µM
- TGI (IGROV1 ovarian): 47.5 µM
- TGI (SF-295 CNS): 37.7 µM
- TGI (HOP-92 NSCLC): 38.1 µM
- TGI (OVCAR-8 ovarian): 64.4 µM
- TGI (NCI-H522 lung): 26.9 µM
- TGI (U251 CNS): 41.6 µM
- TGI (A549 NSCLC): 46 µM
- TGI (DLD-1 colon): 34 µM
- TGI (SK-MEL-2 melanoma): 31.9 µM
- TGI (HL-60(TB) leukemia): 29.9 µM
- TGI (HCT-15 colon): 29.9 µM
- TGI (SNB-19 CNS): 80.7 µM
- TGI (MOLT-4 leukemia): 50.8 µM
- TGI (KM12 colon): 29.3 µM
- TGI (HCT-116 colon): 26 µM
- TGI (NCI-H226 lung): 32.7 µM
- TGI (SK-MEL-28 melanoma): 32 µM
- TGI (HOP-62 NSCLC): 57.9 µM
- TGI (SK-OV-3 ovarian): 43.6 µM
- TGI (OVCAR-4 ovarian): 58.9 µM
- TGI (M14 melanoma): 39.5 µM
- TGI (OVCAR-5 ovarian): 60.9 µM
- TGI (K-562 leukemia): 32.6 µM
- TGI (SNB-75 CNS): 75.3 µM
- TGI (LXFL 529 NSCLC): > 100 µM
- TGI (DMS 273 small cell lung): 75.6 µM
- TGI (HCC-2998 colon): 30.7 µM
- TGI (EKVX NSCLC): > 100 µM
- TGI (SF-539 CNS): 40.2 µM
- TGI (COLO 205 colon): 34.2 µM
- TGI (CAKI-1 renal): > 100 µM
- TGI (HT29 colon): 32.1 µM
- TGI (UACC-257 melanoma): 35.1 µM
- TGI (NCI-H23 lung): 31.2 µM
- TGI (CCRF-CEM leukemia): 58.3 µM
- TGI (HOP-18 NSCLC): > 100 µM
- TGI (ACHN renal): 85 µM
- TGI (NCI-H460 lung): 33.3 µM
- TGI (LOX IMVI melanoma): 25.9 µM
- TGI (MALME-3M melanoma): 40.3 µM
- TGI (SR leukemia): 39.4 µM
- TGI (M19-MEL melanoma): 32.5 µM
